Measured values taken from PubChem BioAssay AID1963849 (Molecular Pharmacology Branch, DTP, NCI, 2024).
Values joined by “and” are separate entries in the source; they are usually repeats but may differ in a detail not shown here. Identical values can stand only once.

Test system: 299254-011-R-J1-PDC complex spheroid viability
Test: Anticancer human tumor 299254-011-R-J1-PDC patient-derived melanoma cell line growth inhibition [POLQ]
Details: for viability, T/C: stronger effect = lower value
Description: Multicellular complex tumor spheroid response to Polymerase (POL) inhibitors (novobiocin, ART-558, RP6685) in combination with a variety of drugs and investigational agents in selected tumor cell lines
The POL inhibitors (novobiocin, ART-558, and RP6685) were evaluated both individually and in combination with standard of care and investigational anticancer small molecules within a complex spheroid model of solid tumors. . Complex spheroids include a stromal component modeled by human endothelial cells (HUVEC) and fibroblasts modeled by human mesenchymal stem cells (MSCs). The concentration ranges selected for each drug and investigational agent were based upon clinically achievable concentrations if the clinical Cmax of the agent was known.
Compounds. The drugs and investigational agents: novobiocin (NSC847541), ART-558 (NSC835418), RP-6685 (NSC848927), peposertib (NSC802822), ceralasertib (NSC780249), elimusertib (NSC800525), camonsertib (NSC841442), AZD-1390 (NSC803789), olaparib (NSC753686), talazoparib (NSC767125), rucaparib (NSC756644), sotorasib (NSC818433), MRTX-1133 (NSC836407), SN-38 (NSC673596), topotecan (NSC609699), epotoside (NSC141540), doxorubicin (NSC123127), gemcitabine (NSC613327), 5-fluorouracil (NSC19893), paclitaxel (NSC125973), vemurafenib (NSC761431), MSA-2 (NSC828583), SN-011 (NSC837082), adavosertib (NSC754352), prexasertib (NSC758257), carboplatin (NSC241240) and oxaliplatin (NSC266046), were obtained from the National Cancer Institute (NCI) Developmental Therapeutics Program Chemical Repository (21). The FDA-approved anticancer drug set is available from the Developmental Therapeutics Program at https://dtp.cancer.gov/organization/dscb/obtaining/. […] The stock solutions were prepared in dimethyl sulfoxide (DMSO, Sigma-Aldrich, St. Louis, MO, cat. D2650), except for the platinum compounds which were prepared in saline (Quality Biological, Gaithersburg, MD, cat. 114-055-101), at 800-fold the tested concentration and stored at -70 degrees C prior to their use. All drugs and investigational agents were tested over a range starting from a high concentration at or near the clinical Cmax and decreasing in half-log increments. If the clinical Cmax for an agent had not been determined, the highest concentration tested was 10 microM, except for SN-38, which was tested at a high concentration of 1 microM.
Cell Culture. All cells were maintained in an incubator at 37 degrees C and 5% CO2 with 95% humidity. The PDC lines were cultured according to standard operating procedures established by the NCI PDMR (https://pdmr.cancer.gov). Table 3 of the manuscript, lists the cell lines along with the number of the three cell types plated to form the mct-spheroids and media for tumor cell growth. After thawing, all PDC lines, except 997537-175-T-J1-PDC and 415267-285-R-J2-PDC, were cultured in Matrigel-coated flasks prepared with a working solution of 1X Ham's F-12 nutrient mix, without supplementation (Thermo Fisher Scientific, cat. 11765054), 100 U/mL penicillin-streptomycin (Thermo Fisher Scientific, cat. 15140122), and 2.5% Matrigel (Corning Inc., Corning, NY, cat. 354248) for the first three passages. The two PDC lines 997537-175-T-J1-PDC and 415267-285-R-J2-PDC were cultured on uncoated flasks. The 857933-349-R-J2-PDC line was cultured in 6C/Colon 1B media containing advanced DMEM/F-12 (Thermo Fisher Scientific, cat. 12634028), 10 mM HEPES (Thermo Fisher Scientific, cat. 15630080), 1X GlutaMAX supplement (Thermo Fisher Scientific, cat. 35050061), 0.1 mg/mL primocin (InvivoGen, San Diego, CA, cat. ant-pm-2), 10% defined fetal bovine serum, heat inactivated (HyClone Laboratories Inc., Logan, UT, cat. SH30070.03HI), 50% L-WRN conditioned media (ATCC, cat. CRL-3276), 1.25 mM N-Acetyl-L-cysteine (Sigma-Aldrich, cat. A9165), 10 mM nicotinamide (Sigma-Aldrich, cat. N0636), 1X B-27 supplement (Thermo Fisher Scientific, cat. 17504044), 1X N-2 supplement (Thermo Fisher Scientific, cat. […]
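Further: spheroids exposed to drugs for one week before measurement.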
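Wherever viability, T/C is given: percent viability relative to DMSO vehicle control taken as 100%.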

## CNCc1ccc(-c2[nH]c3cc(F)cc4c3c2CCNC4=O)cc1 + Cc1cccc(N(C)C(=O)C2C(O)CCN2c2nc(C)cc(C(F)(F)F)c2C#N)c1
Curve of first compound, second compound 0.0316 µM
  IC50: > 10 µM
Curve of first compound, second compound 0.1 µM
  IC50: > 10 µM
Curve of first compound, second compound 0.316 µM
  IC50: > 10 µM
Curve of first compound, second compound 1 µM
  IC50: > 10 µM
Curve of first compound, second compound 3.16 µM
  IC50: > 10 µM
Curve of first compound, second compound 10 µM
  IC50: > 10 µM
Second compound 0.0316 µM, first compound 0.0316 µM
  viability, T/C: 101%
Second compound 0.0316 µM, first compound 0.1 µM
  viability, T/C: 100%
Second compound 0.0316 µM, first compound 0.316 µM
  viability, T/C: 104%
Second compound 0.0316 µM, first compound 1 µM
  viability, T/C: 109%
Second compound 0.0316 µM, first compound 3.16 µM
  viability, T/C: 104%
Second compound 0.0316 µM, first compound 10 µM
  viability, T/C: 136%
Second compound 0.1 µM, first compound 0.0316 µM
  viability, T/C: 102%
Second compound 0.1 µM, first compound 0.1 µM
  viability, T/C: 105%
Second compound 0.1 µM, first compound 0.316 µM
  viability, T/C: 110%
Second compound 0.1 µM, first compound 1 µM
  viability, T/C: 112%
Second compound 0.1 µM, first compound 3.16 µM
  viability, T/C: 112%
Second compound 0.1 µM, first compound 10 µM
  viability, T/C: 118%
Second compound 0.316 µM, first compound 0.0316 µM
  viability, T/C: 109%
Second compound 0.316 µM, first compound 0.1 µM
  viability, T/C: 110%
Second compound 0.316 µM, first compound 0.316 µM
  viability, T/C: 98.1%
Second compound 0.316 µM, first compound 1 µM
  viability, T/C: 108%
Second compound 0.316 µM, first compound 3.16 µM
  viability, T/C: 130%
Second compound 0.316 µM, first compound 10 µM
  viability, T/C: 116%
Second compound 1 µM, first compound 0.0316 µM
  viability, T/C: 107%
Second compound 1 µM, first compound 0.1 µM
  viability, T/C: 109%
Second compound 1 µM, first compound 0.316 µM
  viability, T/C: 98.3%
Second compound 1 µM, first compound 1 µM
  viability, T/C: 103%
Second compound 1 µM, first compound 3.16 µM
  viability, T/C: 119%
Second compound 1 µM, first compound 10 µM
  viability, T/C: 118%
Second compound 3.16 µM, first compound 0.0316 µM
  viability, T/C: 120%
Second compound 3.16 µM, first compound 0.1 µM
  viability, T/C: 110%
Second compound 3.16 µM, first compound 0.316 µM
  viability, T/C: 117%
Second compound 3.16 µM, first compound 1 µM
  viability, T/C: 109%
Second compound 3.16 µM, first compound 3.16 µM
  viability, T/C: 112%
Second compound 3.16 µM, first compound 10 µM
  viability, T/C: 119%
Second compound 10 µM, first compound 0.0316 µM
  viability, T/C: 113%
Second compound 10 µM, first compound 0.1 µM
  viability, T/C: 98.5%
Second compound 10 µM, first compound 0.316 µM
  viability, T/C: 96.8%
Second compound 10 µM, first compound 1 µM
  viability, T/C: 97%
Second compound 10 µM, first compound 3.16 µM
  viability, T/C: 108%
Second compound 10 µM, first compound 10 µM
  viability, T/C: 118%

## COc1cc(C2c3cc4c(cc3C(OC3OC5COC(C)OC5C(O)C3O)C3COC(=O)C23)OCO4)cc(OC)c1O (stereo unspecified)
Compound 0.0316 µM
  viability, T/C: 101% and 98.9% and 106%
Compound 0.1 µM
  viability, T/C: 103% and 106% and 84.8%
Compound 0.316 µM
  viability, T/C: 93.5% and 92.1% and 111%
Compound 1 µM
  viability, T/C: 87.4% and 91.4% and 94.4%
Compound 3.16 µM
  viability, T/C: 67.7% and 73.7% and 72.5%
Compound 10 µM
  viability, T/C: 53.7% and 56.4% and 62.8%
Curve of compound
  IC50: > 10 µM

## COc1cc2cc(C(=O)CCC(=O)O)sc2cc1OC
Compound 0.0316 µM
  viability, T/C: 107% and 89.4% and 110%
Compound 0.1 µM
  viability, T/C: 94.7% and 99.2% and 93.1%
Compound 0.316 µM
  viability, T/C: 106% and 87.4% and 93.6%
Compound 1 µM
  viability, T/C: 103% and 100% and 97.2%
Compound 3.16 µM
  viability, T/C: 113% and 103% and 108%
Compound 10 µM
  viability, T/C: 103% and 104% and 101%
Curve of compound
  IC50: > 10 µM

## C#Cc1c(F)ccc2cc(O)cc(-c3ncc4c(N5CC6CCC(C5)N6)nc(OCC56CCCN5CC(F)C6)nc4c3F)c12 (stereo unspecified)
Compound 0.0316 µM
  viability, T/C: 90.8% and 94.2% and 98%
Compound 0.1 µM
  viability, T/C: 109% and 101% and 94.8%
Compound 0.316 µM
  viability, T/C: 113% and 107% and 110%
Compound 1 µM
  viability, T/C: 117% and 116% and 112%
Compound 3.16 µM
  viability, T/C: 102% and 117% and 93.7%
Compound 10 µM
  viability, T/C: 84.7% and 82.2% and 84.4%
Curve of compound
  IC50: > 10 µM

## C=CCn1c(=O)c2cnc(Nc3ccc(N4CCN(C)CC4)cc3)nc2n1-c1cccc(C(C)(C)O)n1
Compound 0.00316 µM
  viability, T/C: 101% and 90.2% and 103%
Compound 0.01 µM
  viability, T/C: 98.3% and 97.1% and 94.1%
Compound 0.0316 µM
  viability, T/C: 106% and 114% and 110%
Compound 0.1 µM
  viability, T/C: 115% and 104% and 105%
Compound 0.316 µM
  viability, T/C: 83.5% and 95.6% and 103%
Compound 1 µM
  viability, T/C: 79.1% and 78.9% and 58.3%
Curve of compound
  IC50: > 1 µM

## O=C(c1cc(Cc2n[nH]c(=O)c3ccccc23)ccc1F)N1CCN(C(=O)C2CC2)CC1
Compound 0.0316 µM
  viability, T/C: 94.4% and 93.8% and 100%
Compound 0.1 µM
  viability, T/C: 101% and 83.9% and 107%
Compound 0.316 µM
  viability, T/C: 98.9% and 81.6% and 109%
Compound 1 µM
  viability, T/C: 97.1% and 85.2% and 89.6%
Compound 3.16 µM
  viability, T/C: 98.6% and 94.9% and 100%
Compound 10 µM
  viability, T/C: 88.7% and 80.5% and 96.8%
Curve of compound
  IC50: > 10 µM

## CC1COCCN1c1cc(C2(O)CC3CCC(C2)O3)c2cnn(-c3ccn[nH]3)c2n1 (stereo unspecified)
Compound 0.0316 µM
  viability, T/C: 84.1% and 85.2% and 80.8%
Compound 0.1 µM
  viability, T/C: 66.5% and 64.7% and 57.4%
Compound 0.316 µM
  viability, T/C: 34.4% and 36.9% and 39.6%
Compound 1 µM
  viability, T/C: 26.3% and 17.9% and 25.1%
Compound 3.16 µM
  viability, T/C: 14.4% and 15.1% and 20.3%
Compound 10 µM
  viability, T/C: 8.87% and 10.7% and 12.4%
Curve of compound
  IC50: 0.19 µM and 0.182 µM and 0.159 µM

## CCc1cc2c(N3CCc4c(cc(Cn5ccnc5)cc4-c4cn(C)nc4C(F)(F)F)C3=O)ccnc2c(OC)n1
Compound 0.0316 µM
  viability, T/C: 97% and 108% and 110%
Compound 0.1 µM
  viability, T/C: 105% and 116% and 102%
Compound 0.316 µM
  viability, T/C: 96.3% and 113% and 109%
Compound 1 µM
  viability, T/C: 93.1% and 100% and 93.5%
Compound 3.16 µM
  viability, T/C: 98% and 90.8% and 98.3%
Compound 10 µM
  viability, T/C: 84.2% and 82% and 82.5%
Curve of compound
  IC50: > 10 µM
